Results: patent US3940441A (priority 1974, dated 1976)
Converted amounts (≈) assume the structure as drawn. Read-outs that look alike come from different tables or passages of the source.

Tests used:
[1] = tested on: Clostridium welchii; assay: microbe, parasite or virus in culture; assay type: cell-based
[2] = tested on: Staphylococcus aureus; assay: microbe, parasite or virus in culture; assay type: cell-based; conditions: for MBC / MIC: Staphylococcus aureus; for MBC: read-out: Minimum Effective Concentration, Bactericidal
[3] = tested on: Eberthella typhi; assay: microbe, parasite or virus in culture; assay type: cell-based; conditions: for MBC: read-out: Minimum Effective Concentration, Bactericidal; for MIC: read-out: Minimum Effective Concentration, Bacteriostatic
[4] = tested on: Pseudomonas aeruginosa; assay: microbe, parasite or virus in culture; assay type: cell-based; conditions: for MBC / MIC: Pseudomonas aeruginosa; for MBC: read-out: Minimum Effective Concentration, Bactericidal
[5] = tested on: Streptococcus sp.; assay: microbe, parasite or virus in culture; assay type: cell-based; conditions: for MBC / MIC: Streptococcus; for MBC: read-out: Minimum Effective Concentration, Bactericidal; for MIC: read-out: Minimum Effective Concentration, Bacteriostatic
[6] = tested on: Endamoeba criceti; assay: chemotherapeutic evaluation in vivo in hamsters infected with Endamoeba criceti (amebacidal activity); design: species or system hamster; conditions: oral
[7] = tested on: Escherichia coli; assay: microbe, parasite or virus in culture; assay type: cell-based; conditions: read-out: Minimum Inhibitory Concentration
[8] = tested on: Proteus vulgaris; assay: microbe, parasite or virus in culture; assay type: cell-based; conditions: read-out: Minimum Inhibitory Concentration
[9] = Clostridium, read-out: Minimum Effective Concentration, Bactericidal
[10] = Clostridium, read-out: Minimum Effective Concentration, Bacteriostatic
[11] = read-out: Minimum Effective Concentration, Bacteriostatic
[12] = read-out: Minimum Inhibitory Concentration

Molecule | MBC [1, 9] [µg/mL] | MIC [1, 10] [µg/mL] | MBC [2] [µg/mL] | MIC [2, 11] [µg/mL] | MBC [3] [µg/mL] | MIC [3] [µg/mL] | MBC [4] [µg/mL] | MIC [4, 11] [µg/mL] | also measured
2,2'-Dimethylbis{2-[4-(4'-nitrophenoxy)benzylamino]-ethyl}amine and 1,2'-Dimethylbis{2-[4-(4'-nitrophenoxy)benzylamino]ethyl}amine (Mixture of Isomers) [Example 9A] |  |  |  |  |  |  |  |  | Minimum Effective Concentration, Bactericidal [1]: 0.005 mg./cc.; Minimum Effective Concentration, Bacteriostatic [1]: 0.001 mg./cc.; Minimum Effective Concentration, Bactericidal [2]: 0.025 mg./cc.; Minimum Effective Concentration, Bacteriostatic [2]: 0.005 mg./cc.; Minimum Effective Concentration, Bactericidal [3]: 0.25 mg./cc.; Minimum Effective Concentration, Bacteriostatic [3]: 0.1 mg./cc.; Minimum Effective Concentration, Bactericidal [4]: > 1.0 mg./cc.; Minimum Effective Concentration, Bacteriostatic [4]: 0.5 mg./cc.; Minimum Effective Concentration, Bactericidal [5]: 0.01 mg./cc.; Minimum Effective Concentration, Bacteriostatic [5]: 0.0075 mg./cc.
O=[N+]([O-])c1ccc(Oc2ccc(C=NCCCCCCN=Cc3ccc(Oc4ccc([N+](=O)[O-])cc4)cc3)cc2)cc1 [Example 1A, N,N'-bis[4-(4'-nitrophenoxy)benzal]-1,6-hexanediamine] |  |  |  |  |  |  |  |  | animals cleared of amebic infection ([6]; 25 mg./kg./day): 4 out of 10; animals cleared of amebic infection ([6]; 50 mg./kg./day): 6 out of 10; animals cleared of amebic infection ([6]; 100 mg./kg./day): 3 out of 5
O=[N+]([O-])c1ccc(Oc2ccc(C=NCCCCCCCCN=Cc3ccc(Oc4ccc([N+](=O)[O-])cc4)cc3)cc2)cc1 [Example 2, N,N'-bis[4-(4'-nitrophenoxy)benzal]-1,8-octanediamine] |  |  |  |  |  |  |  |  | animals cleared of amebic infection ([6]; 12.5 mg./kg./day): 1 out of 5; animals cleared of amebic infection ([6]; 25 mg./kg./day): 2 out of 5; animals cleared of amebic infection ([6]; 50 mg./kg./day): 2 out of 5
O=[N+]([O-])c1ccc(Oc2ccc(C=NCCN=Cc3ccc(Oc4ccc([N+](=O)[O-])cc4)cc3)cc2)cc1 [Example 3, N,N'-bis[4-(4'-nitrophenoxy)benzal]-1,2-ethanediamine] |  |  |  |  |  |  |  |  | animals cleared of amebic infection ([6]; 100 mg./kg./day): 2 out of 5
O=[N+]([O-])c1ccc(Oc2ccc(CNCCCCCCCCNCc3ccc(Oc4ccc([N+](=O)[O-])cc4)cc3)cc2)cc1 [Example 6A, N,N'-bis[4-(4'-nitrophenoxy)benzyl]-1,8-octanediamine] | 75 (≈ 125 µM) | 50 (≈ 83.5 µM) | 5 (≈ 8.35 µM) | 0.5 (≈ 0.835 µM) | 25 (≈ 41.8 µM) | 7.5 (≈ 12.5 µM) | 1000 (≈ 1670 µM) | 750 (≈ 1250 µM) | 
O=[N+]([O-])c1ccc(Oc2ccc(CNCCCCCCNCc3ccc(Oc4ccc([N+](=O)[O-])cc4)cc3)cc2)cc1 [Example 7, N,N'-bis[4-(4'-nitrophenoxy)benzyl]-1,6-hexanediamine] | 25 (≈ 43.8 µM) | 25 (≈ 43.8 µM) | 7.5 (≈ 13.1 µM) | 1 (≈ 1.75 µM) | 50 (≈ 87.6 µM) | 7.5 (≈ 13.1 µM) | 500 (≈ 876 µM) | 250 (≈ 438 µM) | 
O=[N+]([O-])c1ccc(Oc2ccc(CNCCNCc3ccc(Oc4ccc([N+](=O)[O-])cc4)cc3)cc2)cc1 [Example 8, N,N'-bis[4-(4'-nitrophenoxy)benzyl]-1,2-ethanediamine] | 1 (≈ 1.94 µM) | 0.5 (≈ 0.972 µM) | 50 (≈ 97.2 µM) | 10 (≈ 19.4 µM) | > 100 | 75 (≈ 146 µM) | > 100 | 75 (≈ 146 µM) | 
O=[N+]([O-])c1ccc(Oc2ccc(CNCCCNCCCNCc3ccc(Oc4ccc([N+](=O)[O-])cc4)cc3)cc2)cc1 [Example 9B, Bis{3-[4-(4'-nitrophenoxy)benzylamino]propyl}amine] |  |  |  |  |  |  |  |  | MIC [7]: 0.2 µg/mL (≈ 0.341 µM); MIC [2, 12]: 0.05 µg/mL (≈ 0.0854 µM); MIC [8]: 125 µg/mL (≈ 213 µM); MIC [4, 12]: 3.1 µg/mL (≈ 5.29 µM)
O=[N+]([O-])c1ccc(Oc2ccc(CNC[C@H]3CC[C@H](CNCc4ccc(Oc5ccc([N+](=O)[O-])cc5)cc4)CC3)cc2)cc1 [Example 10A, Trans-1,4-bis[4-(4'-nitrophenoxy)benzylaminomethyl]cyclohexane] | 100 (≈ 168 µM) | 100 (≈ 168 µM) | 50 (≈ 83.8 µM) | 10 (≈ 16.8 µM) | 75 (≈ 126 µM) | 50 (≈ 83.8 µM) |  |  | MBC [5]: 25 µg/mL (≈ 41.9 µM); MIC [5]: 25 µg/mL (≈ 41.9 µM)
CN(CCCCCCN(C)Cc1ccc(Oc2ccc([N+](=O)[O-])cc2)cc1)Cc1ccc(Oc2ccc([N+](=O)[O-])cc2)cc1 [Example 11A, N,N'-Dimethyl-N,N'-bis[4-(4'-nitrophenoxy)-benzyl]-1,6-hexanediamine] | 500 (≈ 835 µM) | 250 (≈ 418 µM) | 250 (≈ 418 µM) | 5 (≈ 8.35 µM) | 750 (≈ 1250 µM) | 500 (≈ 835 µM) |  |  | MBC [5]: 5 µg/mL (≈ 8.35 µM); MIC [5]: 5 µg/mL (≈ 8.35 µM)
O=C(Nc1ccccc1)N(CCCCCCN(Cc1ccc(Oc2ccc([N+](=O)[O-])cc2)cc1)C(=O)Nc1ccccc1)Cc1ccc(Oc2ccc([N+](=O)[O-])cc2)cc1 [Example 12A, N,N'-bis[4-(4'-nitrophenoxy)benzyl]-N,N'-bis(phenylcarbamyl)-1,6-hexanediamine] | 100 (≈ 124 µM) | 75 (≈ 92.7 µM) | 75 (≈ 92.7 µM) | 75 (≈ 92.7 µM) | > 100 | 75 (≈ 92.7 µM) | > 100 | 75 (≈ 92.7 µM) | 
O=C(C(Cl)Cl)N(CCN(Cc1ccc(Oc2ccc([N+](=O)[O-])cc2)cc1)C(=O)C(Cl)Cl)Cc1ccc(Oc2ccc([N+](=O)[O-])cc2)cc1 [Example 13A, N,N'-bis(dichloroacetyl)-N,N'-bis[4-(4'-nitrophenoxy)benzyl]-1,2-ethanediamine] | > 1000 | 750 (≈ 1020 µM) | > 1000 | 750 (≈ 1020 µM) | 750 (≈ 1020 µM) | 750 (≈ 1020 µM) | 750 (≈ 1020 µM) | 750 (≈ 1020 µM) | 
Nc1ccc(Oc2ccc(CNCCCCCCCCNCc3ccc(Oc4ccc(N)cc4)cc3)cc2)cc1 [Example 14A, N,N'-bis[4-(4'-aminophenoxy)benzyl]-1,8-octanediamine] |  |  | 25 (≈ 46.4 µM) | 7.5 (≈ 13.9 µM) | 75 (≈ 139 µM) | 50 (≈ 92.8 µM) | 1000 (≈ 1860 µM) | 750 (≈ 1390 µM) | MBC ([1]; Clostridium; read-out: Minimum Effective Concentration, Bactericidal): 100 µg/mL (≈ 186 µM); MIC ([1]; Clostridium; read-out: Minimum Effective Concentration, Bacteriostatic): 100 µg/mL (≈ 186 µM); MBC [5]: 50 µg/mL (≈ 92.8 µM); MIC [5]: 25 µg/mL (≈ 46.4 µM)
Cc1c(C)c(CCNCc2ccc(Oc3ccc([N+](=O)[O-])cc3)cc2)c(C)c(C)c1CCNCc1ccc(Oc2ccc([N+](=O)[O-])cc2)cc1 [Example 16A, Bis{2-[4-(4'-nitrophenoxy)benzylamino]ethyl}-2,3,5,6-tetramethylbenzene] | 250 (≈ 370 µM) | 100 (≈ 148 µM) | 75 (≈ 111 µM) | 7.5 (≈ 11.1 µM) | 750 (≈ 1110 µM) | 100 (≈ 148 µM) |  |  | MBC [5]: 25 µg/mL (≈ 37 µM); MIC [5]: 2.5 µg/mL (≈ 3.7 µM)
